The source of these data is US8952177B2 (Janssen Pharmaceutica NV, priority 2013, dated 2015).

Assay [1] has as its system leukotriene pathway in human whole blood (LTB4). Kind of assay: Human whole blood assay (LTB4 after calcium ionophore A23187 stimulation). To be noted: human whole blood diluted 1:1 in RPMI, 15 min pre-incubation, A23187 7 μg/mL for 30 min at 37° Celsius. The format is cell-based. Summed up: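 Heparinised human whole blood, diluted 1:1 in RPMI, was preincubated with compound for 15 min at 37° C. before stimulation with A23187 (7 μg/mL) for 30 min. Plasma LTB4 was measured by immunoassay kit and IC50 obtained by 4-parameter fit; single replicate per plate, blood from at least one donor.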

For a further assay, the target named is human FLAP (Homo sapiens (Human), UniProt P20292). Description: FLAP binding assay (HTRF format). To be noted: human FLAP-containing Sf-9 membranes, 25 nM HTRF ligand, 2 h; average of runs; read-out: FLAP Binding wild type HTRF Ki. How it is done:
The ability of the compounds of the present invention to treat a FLAP-mediated disease and/or disorder, or associated symptoms or complications thereof, was determined using the following procedures. Binding assay data represent the average value obtained from two different assay plates, with samples run in duplicate on each plate. Human whole blood assay data represent a single replicate on an assay plate using whole blood from at least one healthy donor.
The assay below is used to test the modulatory activity of compounds against FLAP. Human and mouse FLAP-encoding DNA was amplified by polymerase chain reaction and cloned into pFastBacl (Invitrogen) with a NH2-terminal 6-His tag for expression in Spodoptera frugiperda (Sf-9) cells. FLAP-containing membranes were prepared as was a FITC-labeled FLAP modulator (3-(3-(tert-butylthio)-1-(4-chlorobenzyl)-5-(quinolin-2-ylmethoxy)-1H-indol-2-yl)-2,2-dimethylpropanoic acid). The FLAP binding assay is performed in HTRF format (homogeneous time resolved fluorescence). […] The reaction is allowed to proceed for two hours after which the plate is read on an Envision plate reader in HTRF mode. Data are expressed as a HTRF ratio.
For human FLAP binding assays, data are analyzed with 3DX Explorer software. […] For analysis, data from multiple runs are averaged and each compound may be tested in 2 to 20 runs. Each run comprises two plates and each plate includes duplicates. Data from each plate is averaged and data are imported into 3DX. The data from multiple runs are aggregated as the average of duplicates of the calculated ratios in order to calculate Ki and IC50 values. Numbers in parentheses are the number of runs for the assay.

Each structure is given as a SMILES string. Counter-ions that a name gives are not always drawn.

Sequence of human FLAP (P20292 whole entry): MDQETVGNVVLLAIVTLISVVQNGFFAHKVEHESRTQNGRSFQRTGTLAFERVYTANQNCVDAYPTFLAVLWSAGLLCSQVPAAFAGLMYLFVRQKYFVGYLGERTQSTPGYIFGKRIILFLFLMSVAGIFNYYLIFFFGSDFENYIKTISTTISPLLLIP

A word on the IC50: it is the point on the concentration scale where inhibition reaches its midpoint. By Ki is commonly meant a measure of affinity in units of concentration, obtained from inhibition or displacement. In the case of `Cc1ccc(COc2ccc3nc([C@H]4CCCC[C@H]4C(=O)O)n(Cc4ccc(C#N)cc4)c3c2)nc1` (stereo in doubt) [Example 39, (1R*,2S*)-2-{1-(4-Cyanobenzyl)-6-[(5-methylpyridin-2-yl)methoxy]-1H-benzimidazol-2-yl}cyclohexanecarboxylic acid], in assay [1] (Homo sapiens), the IC50 was found to be 1.07 µM. In addition, at human FLAP, the Ki came out at 0.01 µM.

On to `Cc1ccc(COc2ccc3nc([C@H]4CCCC[C@H]4C(=O)O)n(Cc4cccc(-c5ccc(C(F)(F)F)cc5)c4)c3c2)nc1` (racemic) [Example 145, racemic cis-2-(6-[(5-Methylpyridin-2-yl)methoxy]-1-{[4′-(trifluoromethyl)biphenyl-3-yl]methyl}-1H-benzimidazol-2-yl)cyclohexanecarboxylic acid], for which the IC50 in assay [1] (Homo sapiens) is 0.92 µM. The Ki on human FLAP came to 0.0072 µM.

In the case of `Cn1cc(Cl)c(COc2ccc3nc([C@@H]4CCCC[C@@H]4C(=O)O)n(Cc4ccc(-c5ccc(C(F)(F)F)cc5)cc4)c3c2)n1` (racemic) [Example 151, racemic cis-2-(6-[(4-Chloro-1-methyl-1H-pyrazol-3-yl)methoxy]-1-{[4′-(trifluoromethyl)biphenyl-4-yl]methyl}-1H-benzimidazol-2-yl)cyclohexanecarboxylic acid], in assay [1] (Homo sapiens), the IC50 worked out at 0.91 µM. Moreover, the Ki at human FLAP came to 0.013 µM.

For `CCC(CC)(Cc1nc2ccc(OCc3ccn(C)n3)cc2n1Cc1ccc(OC(F)(F)F)cc1C)C(=O)O` [Example 92], the IC50 in assay [1] (Homo sapiens) worked out at 1.44 µM. Also, the Ki at human FLAP is about 0.25 µM.

`Cc1cnc(COc2ccc3nc([C@H]4CCCC[C@H]4C(=O)O)n(Cc4ccc(N5CCC(F)CC5)cc4)c3c2)c(F)c1` (relative stereo) [Example 176, (1R*,2S*)-2-{6-[(3-Fluoro-5-methylpyridin-2-yl)methoxy]-1-[4-(4-fluoropiperidin-1-yl)benzyl]-1H-benzimidazol-2-yl}cyclohexanecarboxylic acid]: the IC50 in assay [1] (Homo sapiens) was 0.11 µM. For the same molecule, the Ki at human FLAP came out at 0.00042 µM.

`Cn1ccc(COc2ccc3nc([C@@H]4CCCC[C@@H]4C(=O)O)n(Cc4ccc(OC(F)(F)F)cc4Cl)c3c2)n1` (racemic) [Example 103, racemic cis-2-{1-[2-Chloro-4-(trifluoromethoxy)benzyl]-6-[(1-methyl-1H-pyrazol-3-yl)methoxy]-1H-benzimidazol-2-yl}cyclohexanecarboxylic acid as the HCl salt]: the IC50 in assay [1] (Homo sapiens) came to 1.01 µM. For the same molecule, the inhibitory constant (Ki) at human FLAP came to 0.03 µM.

Regarding `CCC(CC)(Cc1nc2ccc(OCc3ccn(C)n3)cc2n1Cc1ccc(OC(F)(F)F)cc1F)C(=O)O` [Example 56, 2-Ethyl-2-({1-[2-fluoro-4-(trifluoromethoxy)benzyl]-6-[(1-methyl-1H-pyrazol-3-yl)methoxy]-1H-benzimidazol-2-yl}methyl)butanoic acid], the IC50 in assay [1] (Homo sapiens) is about 2 µM. Further, at human FLAP, the Ki came out at 0.046 µM.

Regarding `Cc1cnc(COc2ccc3nc(CC(C)(C)C(=O)O)n(Cc4cccc(-c5ccc(C(F)(F)F)cc5)c4)c3c2)c(F)c1` [Example 143, 3-(6-[(3-Fluoro-5-methylpyridin-2-yl)methoxy]-1-{[4′-(trifluoromethyl)biphenyl-3-yl]methyl}-1H-benzimidazol-2-yl)-2,2-dimethylpropanoic acid], in assay [1] (Homo sapiens), the IC50 turned out to be 1.82 µM. The Ki on human FLAP turned out to be 0.013 µM.

Regarding `CCC(CC)(Cc1nc2ccc(OCc3ccc(C)cn3)cc2n1Cc1ccc(OC(F)(F)F)cc1)C(=O)O` [Example 22, 2-Ethyl-2-({6-[(5-methylpyridin-2-yl)methoxy]-1-[4-(trifluoromethoxy)benzyl]-1H-benzimidazol-2-yl}methyl)butanoic acid], the IC50 in assay [1] (Homo sapiens) was determined as 1.66 µM. Further, the Ki on human FLAP came to 0.024 µM.

In the case of `Cc1cnc(COc2ccc3nc(CC(C)(C)C(=O)O)n(Cc4c(F)cc(Br)cc4F)c3c2)c(F)c1` [Example 130, 3-{1-(4-Bromo-2,6-difluorobenzyl)-6-[(3-fluoro-5-methylpyridin-2-yl)methoxy]-1H-benzimidazol-2-yl}-2,2-dimethylpropanoic acid], the IC50 in assay [1] (Homo sapiens) amounted to 0.84 µM. In addition, at human FLAP, the Ki stood at 0.015 µM.

As to `Cn1ccc(COc2ccc3nc([C@@H]4CCCC[C@@H]4C(=O)O)n(Cc4cccc(-c5ccc(C(F)(F)F)cc5)c4)c3c2)n1` (racemic) [Example 150, racemic cis-2-(6-[(1-Methyl-1H-pyrazol-3-yl)methoxy]-1-{[4′-(trifluoromethyl)biphenyl-3-yl]methyl}-1H-benzimidazol-2-yl)cyclohexanecarboxylic acid], the IC50 in assay [1] (Homo sapiens) turned out to be 0.14 µM. On human FLAP, the Ki was determined as 0.0014 µM.

As to `Cc1ccc(COc2ccc3nc(C4CCCC[C@@H]4C(=O)O)n(Cc4ccc(C#N)cc4)c3c2)nc1` (mixture of isomers) [Example 18, racemic trans-2-{1-(4-Cyanobenzyl)-6-[(5-methylpyridin-2-yl)methoxy]-1H-benzimidazol-2-yl}cyclohexanecarboxylic acid as the TFA salt], in assay [1] (Homo sapiens), the half-maximal inhibitory concentration (IC50) was over 10 µM. Moreover, at human FLAP, the Ki is 0.053 µM.

Regarding `Cc1cnc(COc2ccc3nc([C@@H]4[C@H](C(=O)O)C4(C)C)n(Cc4ccc(Br)cc4)c3c2)c(F)c1` (racemic) [Example 132, racemic cis-3-{1-(4-Bromobenzyl)-6-[(3-fluoro-5-methylpyridin-2-yl)methoxy]-1H-benzimidazol-2-yl}-2,2-dimethylcyclopropanecarboxylic acid], the concentration for half-maximal inhibition (IC50) in assay [1] (Homo sapiens) came out at 0.27 µM. Besides, at human FLAP, the inhibition constant (Ki) was determined as 0.0029 µM.

As for `Cc1cnc(COc2ccc3nc(CC(C)(C)C(=O)O)n(Cc4ccc(N5CCC(C(C)(C)C)CC5)cc4)c3c2)c(F)c1` [Example 184, 3-{1-[4-(4-tert-Butylpiperidin-1-yl)benzyl]-6-[(3-fluoro-5-methylpyridin-2-yl)methoxy]-1H-benzimidazol-2-yl}-2,2-dimethylpropanoic acid], the IC50 in assay [1] (Homo sapiens) amounted to 0.8 µM. Also, at human FLAP, the Ki was determined as 0.015 µM.

With `Cn1ccc(COc2ccc3nc([C@@H]4CCCC[C@@H]4C(=O)O)n(Cc4ccc(OC(F)(F)F)cc4F)c3c2)n1` (stereo in doubt) [Example 52, (1S*,2R*)-2-{1-[2-Fluoro-4-(trifluoromethoxy)benzyl]-6-[(1-methyl-1H-pyrazol-3-yl)methoxy]-1H-benzimidazol-2-yl}cyclohexanecarboxylic acid], the IC50 in assay [1] (Homo sapiens) was over 10 µM. For the same molecule, at human FLAP, the Ki is over 10 µM.

On to `CCC(CC)(Cc1nc2c(F)cc(OCc3ccc(C)cn3)cc2n1Cc1ccc(Br)cc1)C(=O)O` [Example 65, 2-({1-(4-Bromobenzyl)-4-fluoro-6-[(5-methylpyridin-2-yl)methoxy]-1H-benzimidazol-2-yl}methyl)-2-ethylbutanoic acid as the TFA salt], for which, in assay [1] (Homo sapiens), the IC50 came out at 1.12 µM. Besides, the Ki on human FLAP was found to be 0.006 µM.

Consider `CCC(CC)(Cc1nc2ccc(OCc3ncc(C)cc3F)cc2n1Cc1ccc(Br)cc1)C(=O)O` [Example 136, 2-({1-(4-Bromobenzyl)-6-[(3-fluoro-5-methylpyridin-2-yl)methoxy]-1H-benzimidazol-2-yl}methyl)-2-ethylbutanoic acid], for which the half-inhibitory concentration (IC50) in assay [1] (Homo sapiens) stood at 0.48 µM. For the same molecule, on human FLAP, the Ki stood at 0.00064 µM.

On to `Cn1ccc(COc2cc(F)c3nc(C4CCCC[C@@H]4C(=O)O)n(Cc4ccc(N5CC(F)(F)C5)cc4)c3c2)n1` (mixture of isomers) [Example 168, racemic cis-2-{1-[4-(3,3-Difluoroazetidin-1-yl)benzyl]-4-fluoro-6-[(1-methyl-1H-pyrazol-3-yl)methoxy]-1H-benzimidazol-2-yl}cyclohexanecarboxylic acid as the formate salt], for which the half-maximal inhibitory concentration (IC50) in assay [1] stood at 3.57 µM. Also, the Ki at human FLAP is 0.0078 µM.

Consider `Cn1ccc(COc2ccc3nc([C@@H]4CCCC[C@@H]4C(=O)O)n(Cc4ccc(OC(F)(F)F)cc4F)c3c2)n1` (stereo in doubt) [Example 51, racemic cis-2-{1-[2-Fluoro-4-(trifluoromethoxy)benzyl]-6-[(1-methyl-1H-pyrazol-3-yl)methoxy]-1H-benzimidazol-2-yl}cyclohexanecarboxylic acid], for which the IC50 in assay [1] (Homo sapiens) was determined as 0.34 µM. Also, the Ki at human FLAP is 0.008 µM.

Take `Cc1cnc(COc2ccc3nc(CC(C)(C)C(=O)O)n(Cc4ccc(-c5ccc(C(F)(F)F)cc5)cc4F)c3c2)c(F)c1` [Example 141, 3-(6-[(3-Fluoro-5-methylpyridin-2-yl)methoxy]-1-{[3-fluoro-4′-(trifluoromethyl)biphenyl-4-yl]methyl}-1H-benzimidazol-2-yl)-2,2-dimethylpropanoic acid]: the IC50 in assay [1] (Homo sapiens) was determined as 0.76 µM. The inhibitory constant (Ki) at human FLAP came out at 0.0051 µM.

Turning to `Cc1ccc(COc2ccc3nc([C@@H]4CCCC[C@@H]4C(=O)O)n(Cc4ccc(OC(F)(F)F)cc4C)c3c2)nc1` (racemic) [Example 100, racemic cis-2-{6-[(5-Methylpyridin-2-yl)methoxy]-1-[2-methyl-4-(trifluoromethoxy)benzyl]-1H-benzimidazol-2-yl}cyclohexanecarboxylic acid], in assay [1] (Homo sapiens), the IC50 is 2.54 µM. Moreover, the Ki at human FLAP came to 0.019 µM.
